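Briefly, cells in 96-well plates were exposed to five compound concentrations for 48 h, and endpoints were estimated by linear interpolation. The concentration for 50% growth inhibition is given as GI50.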 The source made the active and inactive calls. Rule as the data show it: active = GI50 up to about 1.1 µM and inactive = higher. Where only a bound is given, the exact number is not on record here.

We go through eight compounds from ChEMBL document CHEMBL1201862, “PubChem BioAssay data set” (2004).

Some test systems named below: K562; HCT-116; HOP-62; KM12; IGROV-1; UACC-257; SNB-19; SK-MEL-2; MOLT-4; HT-29; A549; HOP-92; M14; CCRF-CEM; SK-MEL-28; OVCAR-8; OVCAR-4; HL-60; RXF 393.
What all share (experiment): NCI-60 cell line screen, 48 h

`O=C(O)c1ccccc1NC(=O)C1CCCCC1`: the GI50 with K562, with HCT-116, with HOP-62, in the experiment with KM12, with IGROV-1 and in the experiment on UACC-257 was > 100 µM (inactive) in each case. For the same compound, the GI50 in the experiment with SNB-19 was > 100 µM (inactive); in the experiment with SK-MEL-2, > 100 µM (inactive); in the experiment with MOLT-4 it was > 100 µM (inactive); in the experiment on HT-29 it was > 100 µM (inactive); with A549, > 100 µM (inactive); in the experiment with HOP-92 it was 6.08 µM (inactive). Further, the GI50 with M14, with CCRF-CEM, with SK-MEL-28, in the experiment on OVCAR-8, in the experiment with OVCAR-4 and in the experiment on HL-60 was > 100 µM (inactive) each time.

Regarding `COc1ccc2cc(C(=O)c3ccccc3C(=O)O)ccc2c1`, the GI50 in the experiment on K562, in the experiment on HCT-116, with HOP-62, with KM12, in the experiment on IGROV-1 and in the experiment on UACC-257 was > 100 µM (inactive) in each case. For the same compound, the GI50 with SNB-19, with SK-MEL-2, with RXF 393, in the experiment with MOLT-4, in the experiment on HT-29 and in the experiment on A549 was > 100 µM (inactive) in each case. The GI50 in the experiment on M14, with CCRF-CEM, in the experiment on SK-MEL-28, with OVCAR-8, in the experiment on OVCAR-4 and in the experiment on HL-60 was > 100 µM (inactive) each time.

For `COC(=O)/C(=N\NC(=O)C[N+](C)(C)C)C(C(=O)OC)C(=O)C(=O)Nc1ccccc1C(N)=O` (stereo unspecified), the GI50 with K562, with HCT-116, with HOP-62, in the experiment with KM12, with IGROV-1 and in the experiment on UACC-257 was > 100 µM (inactive) in each case. For the same compound, the GI50 in the experiment on SNB-19, in the experiment with SK-MEL-2, in the experiment on RXF 393, in the experiment with MOLT-4, with HT-29 and in the experiment on A549 was > 100 µM (inactive) each time. Besides, the GI50 in the experiment on M14, in the experiment with CCRF-CEM, with SK-MEL-28, in the experiment on OVCAR-4 and in the experiment with HL-60 was > 100 µM (inactive) throughout.

As for `C=C1N(C=O)C(C)(C)N(O)C1(C)C`, the GI50 with HCT-116, in the experiment with HOP-62, with KM12, in the experiment with IGROV-1, with UACC-257 and in the experiment on SNB-19 was > 100 µM (inactive) throughout. Also, the GI50 is > 100 µM (inactive) with SK-MEL-2; > 100 µM (inactive) with RXF 393; 29.1 µM (inactive) with MOLT-4; > 100 µM (inactive) in the experiment with HT-29; > 100 µM (inactive) in the experiment with A549; > 100 µM (inactive) with HOP-92. The GI50 with M14, with SK-MEL-28, with OVCAR-8 and in the experiment with OVCAR-4 was > 100 µM (inactive) throughout.

Turning to `CCCCCCCCCCCC(=O)OC(COC(N)=O)COc1ccc(Cl)cc1` (stereo unspecified), the GI50 is 19.2 µM (inactive) with K562; 15.9 µM (inactive) in the experiment with HCT-116; 25 µM (inactive) in the experiment on HOP-62; 25.8 µM (inactive) in the experiment with KM12; 27.5 µM (inactive) in the experiment with IGROV-1; 19.1 µM (inactive) in the experiment on UACC-257. Besides, the GI50 with SNB-19 is 33.3 µM (inactive); in the experiment with SK-MEL-2 it was 24.5 µM (inactive); in the experiment with RXF 393 it was 21 µM (inactive); with MOLT-4, 23.7 µM (inactive); in the experiment with HT-29, 20 µM (inactive); in the experiment with A549, 19.1 µM (inactive). Further, the GI50 is 20.1 µM (inactive) with M14; 18.2 µM (inactive) in the experiment with CCRF-CEM; 20.3 µM (inactive) in the experiment with SK-MEL-28; 17.7 µM (inactive) in the experiment on OVCAR-8; 19.1 µM (inactive) in the experiment on OVCAR-4; 15.3 µM (inactive) in the experiment with HL-60.

Turning to `CCCCCCCCCCCC(=O)OCC1OC(n2cc(F)c(=O)[nH]c2=O)C(NC(=O)OCc2ccccc2)C(OC(=O)CCCCCCCCCCC)C1O` (stereo unspecified), the GI50 with K562, in the experiment with HCT-116, in the experiment on HOP-62, with KM12, in the experiment on IGROV-1 and in the experiment with UACC-257 was > 100 µM (inactive) throughout. Also, the GI50 in the experiment with SNB-19, in the experiment on SK-MEL-2, in the experiment on RXF 393, in the experiment with MOLT-4, in the experiment with HT-29 and in the experiment on A549 was > 100 µM (inactive) each time. The GI50 with HOP-92, in the experiment with M14, in the experiment on CCRF-CEM, with SK-MEL-28, in the experiment on OVCAR-8 and with OVCAR-4 was > 100 µM (inactive) each time.

On to `CN(C)c1ccc(/C=C2\CNC/C(=C\c3ccc(N(C)C)cc3)C2=O)cc1`, for which the GI50 is 24.2 µM (inactive) in the experiment with K562; 16 µM (inactive) in the experiment on HCT-116; > 100 µM (inactive) in the experiment on HOP-62; > 10 µM (inactive) with KM12; 22 µM (inactive) with IGROV-1; 22.5 µM (inactive) with UACC-257. Besides, the GI50 is 24 µM (inactive) in the experiment on RXF 393; 24.2 µM (inactive) in the experiment with MOLT-4; 10.9 µM (inactive) in the experiment on HT-29; 27.4 µM (inactive) with A549; 15.6 µM (inactive) in the experiment with HOP-92; 86.7 µM (inactive) in the experiment on M14. Moreover, the GI50 in the experiment on CCRF-CEM was 25.8 µM (inactive); in the experiment on SK-MEL-28, 22.8 µM (inactive); with OVCAR-8, 24.2 µM (inactive); in the experiment on OVCAR-4, 13.3 µM (inactive).

`COc1cc([C@@H]2c3cc4c(c(O)c3C[C@H]3COC(=O)[C@@H]32)OCO4)cc(OC)c1OC` [BETA-PELTATIN A]: the GI50 in the experiment with K562 is 19.5 µM (inactive); in the experiment on HCT-116, 0.015 µM (active); in the experiment with HOP-62, 0.323 µM (active); in the experiment on KM12, 0.015 µM (active); in the experiment on IGROV-1 it was 0.015 µM (active); with SNB-19, 0.015 µM (active). Also, the GI50 is 0.015 µM (active) with SK-MEL-2; 0.015 µM (active) in the experiment on MOLT-4; 0.015 µM (active) in the experiment with A549; 0.015 µM (active) in the experiment with HOP-92; 0.0241 µM (active) in the experiment on M14; 1.8 µM (inactive) in the experiment with CCRF-CEM. The GI50 with SK-MEL-28 is 4.18 µM (inactive); in the experiment on OVCAR-8, 0.015 µM (active); with OVCAR-4, 0.0627 µM (active).
